Source: patent publication US20230143751A1, “Aromatic Compound And Use Thereof In Preparing Antineoplastic Drugs” (Shanghai Zheye Biotechnology Co. Ltd., priority 2020, published 2023)

Experiments:
[1] = Safety test for repeated administration for 14 days in SD rats; assay type: in vivo; details: oral gavage once a day for 14 days, 50, 150, 400 mg/kg
Method: (§1) Test samples: Compound 3-2, and Compound 3-6.
(§2) Animal species and number: SD rat; 6 animals per group (half male and half female).
(§3) Administration mode: oral administration by gavage.
Animal grouping and administration dose: vehicle blank group, Compound 3-2 group (50 mg/kg, 150 mg/kg, 400 mg/kg), Compound 3-6 group (50 mg/kg, 150 mg/kg, 400 mg/kg).
Administration frequency: once a day for 14 days.
(§4) General clinical observations were performed 2 times a day (once in the morning and once in the afternoon) during the test period. Death, morbidity, respiration, secretions, feces, and diet, drinking situation and so on were observed, and the changes in body weight of the rats during the administration period were recorded. The contents of detailed clinical observation included but were not limited to behavioral activity, skin, coat, eyes, ears, nose, abdomen, external genitalia, anus, extremities, feet, and respiration. The animals in each group were euthanized at the end of administration period, and all animals were dissected and subjected to gross observation.

NCI-H358 cells = assay: Cell proliferation activity of NCI-H358 by CellTiter-Glo reagent; assay type: cell-based; details: Homo sapiens, NCI-H358; test 8, method of test 3; read-out: IC50 of proliferation inhibitory activity of the compound on NCI-H358 cell line
Summary of the method: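 NCI-H358 cells seeded at 2000–3000 per well and grown overnight at 37° C, 5% CO2 before compound exposure. Viability read by CellTiter-Glo luminescence; IC50 from curve fitting.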

[2] = test system: NCI-H358-derived xenograft tumor; assay: Pharmacodynamics study of NCI-H358-derived xenograft tumor model, combination with Afatinib or Trametinib (test 10); assay type: in vivo, nude mice; details: i.g. QD×21 days, 3-2 10 mg/kg, Afatinib 10 mg/kg, Trametinib 0.1 mg/kg
Method: Animal species and number: Balb/c Nude; 6 animals per group. Test samples: […] Test groups: blank solvent control group; […] NCI-H358 tumor cells in logarithmic growth phase were cultured in vitro and collected, and inoculated subcutaneously into the right back of nude mice at a quantity of 5×10^6 cells/each. When the tumor volume reached 150-300 mm^3, the tumor-bearing nude mice were randomly grouped. Subsequently, the animals in each group were administered, and the day of the first administration was defined as day 1 of the test. Administration frequency: once a day. General state observation: observation time and frequency: once a day; observation indexes or contents: including but not limited to administration location, appearance and signs, general behavioral activities, mental status, death and other abnormal performance of the animals. The animals were euthanized at the end of the test. Tumor volume calculation: V=½×long diameter×short diameter^2 (mm^3).

NCI-H358 = assay: Cell proliferation inhibitory activity on NCI-H358, 3D model test (agarose colony formation); assay type: cell-based
Method: 100 μl of agarose gel with a high concentration was spread in a 96-well plate as the bottom agarose gel layer. Agarose with a low concentration and growth medium containing cells were mixed and then spread on the bottom agar layer, cooled and solidified, then incubated overnight at 37° C. Mother solutions were prepared from the test compounds by using DMSO, and then subjected to gradient elution with RPMI 1640 growth medium. The solutions of test compounds with different concentrations after gradient elution were added to the 96-well plate comprising an upper layer of agar gel-cells. Solvent control well was set up and the plate was incubated in a CO2 incubator. The drug-containing medium was changed during the incubation period and the cell growth situation was observed. After the incubation, the cells were stained with NBT and the number of cell colony formation was counted, and the IC50 values of the compounds inhibiting cell proliferation were derived.

[3] = Analysis regarding therapeutic safety window; details: in vivo, oral, 5 days
[4] = Acute toxicity test, single oral dose in SD rats; assay type: in vivo; details: SD rats, single oral gavage, 500, 1000, 2000 mg/kg
Method: as §1, §2, §3
Animal grouping and administration dose: vehicle blank group, Compound 3-2 group (500 mg/kg, 1000 mg/kg, 2000 mg/kg), Compound 3-6 group (500 mg/kg, 1000 mg/kg, 2000 mg/kg).
Administration frequency: once.
as §4, with “Death,” for “General clinical observations were performed 2 times a day (once in the morning and once in the afternoon) during the test period. Death,”, “of observation” for “of administration”

[5] = Preliminary safety test, 5-day escalating oral dosing in Balb/c mice; assay type: in vivo
Method: Test samples: Compound 3-2, Compound 3-6, Compound 3-12M, Compound 3-20, and Compound 4-8.
Animal species and number: Balb/c; 6 animals per group (half male and half female).
as §3
Animal grouping and administration dose: vehicle blank group, Compound 3-2 group (200 mg/kg, 400 mg/kg, 800 mg/kg), Compound 3-6 group (200 mg/kg, 400 mg/kg, 800 mg/kg), Compound 3-12M group (200 mg/kg, 400 mg/kg, 800 mg/kg), Compound 3-20 group (200 mg/kg, 400 mg/kg, 800 mg/kg), Compound 4-8 group (200 mg/kg, 400 mg/kg, 800 mg/kg).
Administration frequency: once a day for 5 days.
General clinical observations were performed 2 times a day (once in the morning and once in the afternoon) during the test period. Death, morbidity, respiration, secretions, feces, and diet, drinking situation and so on were observed, and the changes in body weight of the mice during the administration period were recorded. The animals in each group were euthanized after the administration, and all animals were dissected and subjected to gross observation.

Structure (SMILES): C=CC(=O)N1CCN(c2nc(=O)n(-c3c(C)ccnc3C(C)C)c3nc(-c4ccccc4C=C)c(Cl)cc23)[C@@H](C)C1 [Compound 3-2]
- water and food intake, activity and body weight during the administration period (in words) [1]: no significant abnormality was showed
- IC50 (NCI-H358 cells): 10 nM
- Tumor inhibition rate (%) [2]: ++ (“++” represents a tumor inhibition rate of 130%˜200%)
- anti-cell proliferation activity against KRAS G12C mutant type cells NCI-H358 (in words) (NCI-H358; 3D model test): significant anti-cell proliferation activity
- IC50 (NCI-H358; Homo sapiens, NCI-H358, 3D agarose colony formation, NBT staining): < 50 nM
- therapeutic safety window: ratio of toxic dose to effective dose [3]: greater than 80
- death or morbidity after single dose (in words) [4]: No animals in each group were dead or close to death
- MTD ([4]; both sexes, rat, in vivo, read-out: maximum tolerated dose (MTD)): ≥ 2000 mg/kg
- MTD at 5 days ([5]; both sexes, mouse, in vivo, oral gavage, 5 days, initially suggested, read-out: maximum tolerated dose): > 800 mg/kg
- water and food intake, activity and body weight during the administration period (in words) ([5]; oral gavage once a day for 5 days, 200 to 800 mg/kg): no significant abnormality was showed
